Test results taken from ChEMBL document CHEMBL3885861, “Open TG-GATES”.

Species on record: Rattus norvegicus
Assay: Open TG-GATES - Regimen: Single
Format: toxicity, organism-based, Sprague-Dawley
Design: regimen Single, gender Male, age 6 weeks
Details: in vivo, ip, 100 mg/kg, route intraperitoneal injection, dose level Low; for APTT / Bas / Eos / Fbg / Hb / Ht / Lym / MCH / MCHC / MCV / Mono / Neu / PT / Plat / RBC / Ret / WBC: tissue Blood; for KIDNEY_L / KIDNEY_R / KIDNEY_TOTAL: tissue Kidney; for LIVER: tissue Liver; for A/G / ALP / ALT / AST / BUN / CRE / Ca / Cl / DBIL / GLC / IP / K / LDH / Na / PL / RALB / TBIL / TC / TG / TP / gamma-GTP: tissue Plasma

## N[C@H]1C(O)O[C@H](CO)[C@@H](O)[C@@H]1O (some centres not stated) [GLUCOSAMINE]
3 h
  TERMINAL_BW: 188.6 g
  APTT: 16.4 s
  Bas: 0.4%
  Eos: 1%
  Fbg: 267.2 mg/dL
  Hb: 13.3 g/dL
  Ht: 41.3%
  Lym: 75%
  MCH: 21.3 pg
  MCHC: 32.1%
  MCV: 66.4 fL
  Mono: 3.2%
  Neu: 19.6%
  PT: 15.7 s
  Plat: 114.1 x10_4/uL
  RBC: 623.2 x10_4/ul
  Ret: 9.9%
  WBC: 83.2 x10_2/uL
  KIDNEY_L: 0.8 g
  KIDNEY_R: 0.8 g
  KIDNEY_TOTAL: 1.6 g
  LIVER: 8.3 g
  A/G: 0.9
  ALP: 1288 IU/L
  ALT: 42.2 IU/L
  AST: 84.6 IU/L
  BUN: 10.4 mg/dL
  CRE: 0.2 mg/dL
  Ca: 10.6 mg/dL
  Cl: 108.4 meq/L
  DBIL: 0.01 mg/dL
  GLC: 171.6 mg/dL
  IP: 9.2 mg/dL
  K: 4 meq/L
  LDH: 70 IU/L
  Na: 143.4 meq/L
  PL: 147.8 mg/dL
  RALB: 2.5 g/dL
  TBIL: 0.054 mg/dL
  TC: 80.8 mg/dL
  TG: 36.8 mg/dL
  TP: 5.2 g/dL
  gamma-GTP: 1 IU/L
6 h
  TERMINAL_BW: 186.1 g
  APTT: 17.1 s
  Bas: 0%
  Eos: 0.8%
  Fbg: 259.4 mg/dL
  Hb: 12.8 g/dL
  Ht: 39.3%
  Lym: 67%
  MCH: 21.5 pg
  MCHC: 32.7%
  MCV: 65.9 fL
  Mono: 3.6%
  Neu: 27.6%
  PT: 16.9 s
  Plat: 114.6 x10_4/uL
  RBC: 596 x10_4/ul
  Ret: 9.9%
  WBC: 82.3 x10_2/uL
  KIDNEY_L: 0.8 g
  KIDNEY_R: 0.8 g
  KIDNEY_TOTAL: 1.7 g
  LIVER: 7.7 g
  A/G: 0.9
  ALP: 1431.6 IU/L
  ALT: 49.6 IU/L
  AST: 94.2 IU/L
  BUN: 8.8 mg/dL
  CRE: 0.2 mg/dL
  Ca: 10.1 mg/dL
  Cl: 107.8 meq/L
  DBIL: 0.006 mg/dL
  GLC: 158 mg/dL
  IP: 9.5 mg/dL
  K: 3.9 meq/L
  LDH: 58.6 IU/L
  Na: 143.2 meq/L
  PL: 144.2 mg/dL
  RALB: 2.4 g/dL
  TBIL: 0.054 mg/dL
  TC: 80.2 mg/dL
  TG: 40.2 mg/dL
  TP: 5.1 g/dL
  gamma-GTP: 1 IU/L
9 h
  TERMINAL_BW: 185.8 g
  APTT: 18.8 s
  Bas: 0%
  Eos: 0.8%
  Fbg: 289.4 mg/dL
  Hb: 12.9 g/dL
  Ht: 39.8%
  Lym: 68.4%
  MCH: 21 pg
  MCHC: 32.3%
  MCV: 64.8 fL
  Mono: 1.8%
  Neu: 28.4%
  PT: 16.1 s
  Plat: 104 x10_4/uL
  RBC: 614.4 x10_4/ul
  Ret: 9.1%
  WBC: 60.7 x10_2/uL
  KIDNEY_L: 0.8 g
  KIDNEY_R: 0.8 g
  KIDNEY_TOTAL: 1.7 g
  LIVER: 7.4 g
  A/G: 0.9
  ALP: 1454.4 IU/L
  ALT: 39 IU/L
  AST: 83.4 IU/L
  BUN: 8 mg/dL
  CRE: 0.2 mg/dL
  Ca: 10.4 mg/dL
  Cl: 107 meq/L
  DBIL: 0.008 mg/dL
  GLC: 180 mg/dL
  IP: 10.4 mg/dL
  K: 3.6 meq/L
  LDH: 54.8 IU/L
  Na: 144 meq/L
  PL: 142.2 mg/dL
  RALB: 2.5 g/dL
  TBIL: 0.056 mg/dL
  TC: 78.8 mg/dL
  TG: 35.6 mg/dL
  TP: 5.3 g/dL
  gamma-GTP: 1 IU/L
24 h
  TERMINAL_BW: 202.9 g
  APTT: 18.1 s
  Bas: 0.2%
  Eos: 1.6%
  Fbg: 253.2 mg/dL
  Hb: 12.8 g/dL
  Ht: 39.2%
  Lym: 69.2%
  MCH: 20.8 pg
  MCHC: 32.7%
  MCV: 63.6 fL
  Mono: 3%
  Neu: 25.2%
  PT: 16.2 s
  Plat: 105.9 x10_4/uL
  RBC: 616.8 x10_4/ul
  Ret: 8.6%
  WBC: 93.3 x10_2/uL
  KIDNEY_L: 0.9 g
  KIDNEY_R: 0.9 g
  KIDNEY_TOTAL: 1.7 g
  LIVER: 9 g
  A/G: 0.9
  ALP: 1735.2 IU/L
  ALT: 51.8 IU/L
  AST: 81.4 IU/L
  BUN: 14.2 mg/dL
  CRE: 0.2 mg/dL
  Ca: 10.6 mg/dL
  Cl: 107.4 meq/L
  DBIL: 0.014 mg/dL
  GLC: 181.6 mg/dL
  IP: 8.5 mg/dL
  K: 4.2 meq/L
  LDH: 134.8 IU/L
  Na: 143.8 meq/L
  PL: 160.4 mg/dL
  RALB: 2.6 g/dL
  TBIL: 0.036 mg/dL
  TC: 83.4 mg/dL
  TG: 76.6 mg/dL
  TP: 5.6 g/dL
  gamma-GTP: 1 IU/L
